In ChEMBL document CHEMBL1201862, “PubChem BioAssay data set” (2004):
Counter-ions that a name gives are not always drawn. Values belong to the compound of their own block, whether it stands above or below them. Calls of active or inactive are those of the source.

Legend:
[1] = test system: HEK293; test: cells; details: Homo sapiens
[2] = test system: HEK293; test: cells; details: Homo sapiens; remark: listed apart in the source
[3] = decrease of insulin promoter-GFP reporter – imaging, high-content screening, mouse beta cells (AID 1628); format: functional; details: MIN6
[4] = MIN6 cell viability loss – mouse insulinoma, cytotoxicity control, dose response (AID 2122); format: functional;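 note: confirmatory high-throughput counterscreen run to flag cytotoxic compounds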
[5] = molecular target: Heat shock protein HSP 90-alpha (Homo sapiens, UniProt P07900); format: functional, organism-based
[6] = test system: Vero; test: viability of Vero cells under compound – cytotoxicity control for flavivirus capping enzyme inhibitors (AID 588742); format: functional; details: Chlorocebus sabaeus
[7] = molecular target: Genome polyprotein (dengue virus type 2, UniProt P29990); test: flavivirus cap methylation enzyme inhibition – biochemical, confirmation dose response, primary screen (AID 588689); format: functional
Genome polyprotein, sequence (P29990 2492-3391 limits assumed): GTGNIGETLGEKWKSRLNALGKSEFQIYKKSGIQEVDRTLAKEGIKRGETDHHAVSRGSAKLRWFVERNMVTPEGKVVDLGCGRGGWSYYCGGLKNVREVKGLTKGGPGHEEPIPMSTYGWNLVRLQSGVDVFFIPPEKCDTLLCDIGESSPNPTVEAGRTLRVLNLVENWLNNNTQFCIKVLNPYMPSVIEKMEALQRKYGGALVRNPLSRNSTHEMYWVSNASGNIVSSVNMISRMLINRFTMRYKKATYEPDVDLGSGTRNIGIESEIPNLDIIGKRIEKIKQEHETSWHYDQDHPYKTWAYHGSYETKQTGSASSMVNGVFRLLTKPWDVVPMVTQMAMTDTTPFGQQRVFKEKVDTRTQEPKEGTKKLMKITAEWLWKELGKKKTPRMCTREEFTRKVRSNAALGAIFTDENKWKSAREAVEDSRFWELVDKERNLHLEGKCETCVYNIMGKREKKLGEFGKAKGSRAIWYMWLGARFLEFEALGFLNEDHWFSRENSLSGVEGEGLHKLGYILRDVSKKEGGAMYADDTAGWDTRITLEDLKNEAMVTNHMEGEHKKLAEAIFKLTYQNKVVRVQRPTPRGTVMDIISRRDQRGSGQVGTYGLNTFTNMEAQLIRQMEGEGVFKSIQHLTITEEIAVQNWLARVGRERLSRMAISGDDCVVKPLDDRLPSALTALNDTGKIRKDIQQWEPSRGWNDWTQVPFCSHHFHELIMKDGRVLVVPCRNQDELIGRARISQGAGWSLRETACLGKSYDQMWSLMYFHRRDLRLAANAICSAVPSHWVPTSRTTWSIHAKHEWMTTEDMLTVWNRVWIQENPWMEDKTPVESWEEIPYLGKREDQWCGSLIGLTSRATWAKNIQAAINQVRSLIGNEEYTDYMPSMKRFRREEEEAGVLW

[8] = molecular target: Cytochrome P450 3A4 (Homo sapiens, UniProt P08684);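 note: CYP3A4 tested as one member of a cytochrome P450 panel screen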
Cytochrome P450 3A4, sequence (P08684 whole entry): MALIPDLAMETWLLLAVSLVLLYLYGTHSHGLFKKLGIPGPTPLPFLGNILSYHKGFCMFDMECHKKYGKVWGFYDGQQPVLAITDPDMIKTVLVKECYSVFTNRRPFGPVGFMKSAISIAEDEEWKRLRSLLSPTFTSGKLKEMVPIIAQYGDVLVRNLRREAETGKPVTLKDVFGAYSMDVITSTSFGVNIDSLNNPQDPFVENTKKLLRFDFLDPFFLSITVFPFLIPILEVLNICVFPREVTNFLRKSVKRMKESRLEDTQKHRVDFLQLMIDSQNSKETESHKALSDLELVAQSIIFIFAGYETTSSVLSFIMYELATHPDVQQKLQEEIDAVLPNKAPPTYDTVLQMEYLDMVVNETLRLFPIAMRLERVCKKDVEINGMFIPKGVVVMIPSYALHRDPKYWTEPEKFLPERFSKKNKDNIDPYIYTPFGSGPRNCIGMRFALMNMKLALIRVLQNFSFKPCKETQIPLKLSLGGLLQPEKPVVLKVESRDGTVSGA

[9] = molecular target: SUMO E1/E2 (Homo sapiens, UniProt P63279+Q9UBE0+Q9UBT2); test: SAR analysis of SUMOylation using HTRF in an in-Vitro dose response assay. [Related pubchem assays (depositor defined):AID2006, AID2011, AID2018, AID2069, AID2658]; format: functional
SUMO E1/E2, sequence (Q9UBE0 whole entry): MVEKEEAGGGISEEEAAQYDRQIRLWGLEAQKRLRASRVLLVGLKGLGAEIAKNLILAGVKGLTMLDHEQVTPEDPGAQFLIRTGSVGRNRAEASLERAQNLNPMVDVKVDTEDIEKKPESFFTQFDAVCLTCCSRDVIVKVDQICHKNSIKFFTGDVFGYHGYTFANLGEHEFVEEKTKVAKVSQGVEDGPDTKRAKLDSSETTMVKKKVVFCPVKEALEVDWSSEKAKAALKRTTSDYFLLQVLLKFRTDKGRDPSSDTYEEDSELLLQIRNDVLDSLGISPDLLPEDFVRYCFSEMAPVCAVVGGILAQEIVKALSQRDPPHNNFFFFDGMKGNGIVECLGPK
SUMO E1/E2, sequence (Q9UBT2 whole entry): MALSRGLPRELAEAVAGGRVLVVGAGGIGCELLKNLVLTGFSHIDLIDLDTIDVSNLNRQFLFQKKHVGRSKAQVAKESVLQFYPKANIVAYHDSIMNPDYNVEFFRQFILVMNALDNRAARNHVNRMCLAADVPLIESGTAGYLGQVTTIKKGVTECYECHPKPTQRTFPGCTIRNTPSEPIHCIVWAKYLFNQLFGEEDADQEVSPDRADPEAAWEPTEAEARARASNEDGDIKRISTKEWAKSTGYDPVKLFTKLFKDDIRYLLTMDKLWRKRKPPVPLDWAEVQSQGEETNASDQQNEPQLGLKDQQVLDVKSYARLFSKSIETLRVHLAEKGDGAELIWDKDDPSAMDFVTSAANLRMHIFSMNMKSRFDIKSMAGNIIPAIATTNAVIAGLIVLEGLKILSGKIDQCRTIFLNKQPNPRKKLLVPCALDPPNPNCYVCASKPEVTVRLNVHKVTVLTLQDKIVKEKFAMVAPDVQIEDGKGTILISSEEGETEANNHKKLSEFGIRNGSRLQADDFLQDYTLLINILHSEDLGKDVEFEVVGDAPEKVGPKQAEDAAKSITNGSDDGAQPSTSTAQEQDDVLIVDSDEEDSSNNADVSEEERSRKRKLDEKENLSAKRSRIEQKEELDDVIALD
SUMO E1/E2, sequence (P63279 whole entry): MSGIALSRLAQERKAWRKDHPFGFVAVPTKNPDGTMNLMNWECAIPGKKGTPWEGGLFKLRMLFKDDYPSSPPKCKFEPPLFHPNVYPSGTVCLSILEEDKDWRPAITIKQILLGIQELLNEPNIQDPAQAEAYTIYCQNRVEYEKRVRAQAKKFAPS

[10] = Trypanosoma cruzi growth suppression in host cells – NIH3T3 host cells, beta-gal luminescence, confirmation (AID 2044); format: functional, cell-based;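 note: intracellular parasites grown in NIH/3T3 mouse fibroblasts as host cells; luminescent beta-galactosidase reporter signal from transgenic T. cruzi replicating inside host cells; inhibitors lower the luminescence signal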
[11] = NIH3T3 cell viability loss – ATP luminescence, mouse fibroblasts, counter-screen, dose response (AID 2010); format: functional, cell-based;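 note: cells exposed to compound for about 90 hours before reading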
[12] = molecular target: T1, Bcl-2-related protein A1 (Mus musculus, UniProt Q07440); format: functional;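 note: confirmatory dose–response counterscreen on Bfl-1, used to check hits from a UBC13 polyubiquitin inhibitor campaign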
T1 sequence (Q07440 whole entry): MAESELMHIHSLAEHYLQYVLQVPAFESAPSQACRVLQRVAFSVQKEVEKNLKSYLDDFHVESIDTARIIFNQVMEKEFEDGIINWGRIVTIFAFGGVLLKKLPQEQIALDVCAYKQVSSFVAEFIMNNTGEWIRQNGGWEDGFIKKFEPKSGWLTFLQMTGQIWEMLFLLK

[13] = molecular target: T2, Ubiquitin-conjugating enzyme E2 N (Homo sapiens, UniProt P61088); format: functional
T2 sequence (P61088 whole entry): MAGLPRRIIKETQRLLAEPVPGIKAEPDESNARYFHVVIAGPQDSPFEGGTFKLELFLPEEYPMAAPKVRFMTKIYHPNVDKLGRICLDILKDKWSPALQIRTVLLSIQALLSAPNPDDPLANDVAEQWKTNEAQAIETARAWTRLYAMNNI

[14] = molecular target: T2, Ubiquitin-conjugating enzyme E2 N; format: functional; remark: listed apart in the source
[15] = test system: INS1; test: INS-1E survival protection against cytokine death – cell-based, luminescence, retest, dose response (AID 449756); format: functional; details: Rattus norvegicus;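 note: cell death triggered by IL-1 beta plus TNF-alpha plus IFN-gamma mixture; protective hits raise ATP signal compared with cytokine alone wells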
[16] = viability loss in THP-1 monocytes – THP-1 cells, cytotoxicity control for Vif-APOBEC3G degradation inhibitor project, dose response (AID 1117359); format: functional; details: THP-1
[17] = molecular target: T3, Cytochrome P450 2C9 (Homo sapiens, UniProt P11712); details: Potency
T3 sequence (P11712 whole entry): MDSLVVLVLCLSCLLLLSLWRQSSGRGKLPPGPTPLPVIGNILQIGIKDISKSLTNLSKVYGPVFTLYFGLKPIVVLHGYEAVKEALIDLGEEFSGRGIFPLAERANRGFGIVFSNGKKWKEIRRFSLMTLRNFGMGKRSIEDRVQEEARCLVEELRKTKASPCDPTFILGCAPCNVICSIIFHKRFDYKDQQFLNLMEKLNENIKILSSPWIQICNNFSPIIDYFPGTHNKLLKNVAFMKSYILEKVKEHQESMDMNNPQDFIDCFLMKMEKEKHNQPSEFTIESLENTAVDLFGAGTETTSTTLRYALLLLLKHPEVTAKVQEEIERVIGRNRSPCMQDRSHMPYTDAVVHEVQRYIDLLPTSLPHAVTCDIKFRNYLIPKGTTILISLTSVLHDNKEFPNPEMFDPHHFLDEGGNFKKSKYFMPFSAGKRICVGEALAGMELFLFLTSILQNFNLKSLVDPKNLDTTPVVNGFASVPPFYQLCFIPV

[18] = molecular target: Cytochrome P450 2D6 (Homo sapiens, UniProt P10635);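 note: CYP2D6 member of a cytochrome P450 panel assay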
Cytochrome P450 2D6, sequence (P10635 whole entry): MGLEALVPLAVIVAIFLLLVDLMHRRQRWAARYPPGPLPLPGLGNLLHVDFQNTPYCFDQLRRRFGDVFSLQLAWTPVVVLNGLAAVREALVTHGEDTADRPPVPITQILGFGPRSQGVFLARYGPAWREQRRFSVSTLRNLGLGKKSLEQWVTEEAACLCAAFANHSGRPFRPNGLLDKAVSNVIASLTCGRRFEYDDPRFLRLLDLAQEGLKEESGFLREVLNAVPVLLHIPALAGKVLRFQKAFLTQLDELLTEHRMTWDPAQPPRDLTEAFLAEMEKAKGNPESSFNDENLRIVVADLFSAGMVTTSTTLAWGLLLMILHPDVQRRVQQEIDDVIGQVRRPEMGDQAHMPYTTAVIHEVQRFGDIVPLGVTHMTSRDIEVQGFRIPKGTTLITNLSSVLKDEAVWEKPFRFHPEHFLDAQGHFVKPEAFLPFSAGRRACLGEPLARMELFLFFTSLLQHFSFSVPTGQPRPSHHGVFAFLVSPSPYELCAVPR

[19] = molecular target: T3, Cytochrome P450 2C9
[20] = molecular target: Voltage-gated inwardly rectifying potassium channel KCNH2 (Homo sapiens, UniProt Q12809); details: Potency;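 note: confirmatory quantitative high-throughput screen measuring inhibition of hERG channel activity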
Voltage-gated inwardly rectifying potassium channel KCNH2, sequence (Q12809 whole entry): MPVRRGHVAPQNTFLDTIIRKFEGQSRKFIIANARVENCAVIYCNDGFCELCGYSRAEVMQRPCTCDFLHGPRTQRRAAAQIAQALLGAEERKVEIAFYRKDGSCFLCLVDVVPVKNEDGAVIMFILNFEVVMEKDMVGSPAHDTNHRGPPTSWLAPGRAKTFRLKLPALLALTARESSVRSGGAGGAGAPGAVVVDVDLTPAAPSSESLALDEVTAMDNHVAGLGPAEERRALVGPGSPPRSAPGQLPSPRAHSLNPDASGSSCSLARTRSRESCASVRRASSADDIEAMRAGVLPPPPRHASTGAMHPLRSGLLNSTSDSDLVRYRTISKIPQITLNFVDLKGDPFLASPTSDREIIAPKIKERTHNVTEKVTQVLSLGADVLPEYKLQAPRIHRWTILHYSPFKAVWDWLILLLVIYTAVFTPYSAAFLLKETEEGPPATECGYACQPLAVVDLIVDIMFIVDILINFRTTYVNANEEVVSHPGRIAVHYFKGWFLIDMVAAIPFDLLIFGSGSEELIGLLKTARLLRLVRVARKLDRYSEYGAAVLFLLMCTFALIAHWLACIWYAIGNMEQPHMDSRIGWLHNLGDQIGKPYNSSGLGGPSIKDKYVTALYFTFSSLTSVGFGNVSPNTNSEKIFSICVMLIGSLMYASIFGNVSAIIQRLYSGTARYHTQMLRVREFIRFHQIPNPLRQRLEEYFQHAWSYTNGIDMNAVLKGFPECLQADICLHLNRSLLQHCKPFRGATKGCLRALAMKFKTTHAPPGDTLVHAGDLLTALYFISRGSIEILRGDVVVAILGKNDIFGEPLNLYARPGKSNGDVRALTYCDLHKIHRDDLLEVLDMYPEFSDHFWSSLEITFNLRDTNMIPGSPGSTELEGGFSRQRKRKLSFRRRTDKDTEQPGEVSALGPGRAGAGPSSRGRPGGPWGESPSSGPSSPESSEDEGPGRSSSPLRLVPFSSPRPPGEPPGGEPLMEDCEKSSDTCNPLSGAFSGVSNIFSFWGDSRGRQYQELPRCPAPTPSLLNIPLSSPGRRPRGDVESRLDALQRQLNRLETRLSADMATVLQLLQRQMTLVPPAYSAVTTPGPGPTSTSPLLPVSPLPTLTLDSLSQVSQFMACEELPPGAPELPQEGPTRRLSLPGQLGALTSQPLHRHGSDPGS

Compound: CCOC(=O)CN=C(S)N(Cc1cccs1)C1CCCCC1
EC50 [1]: > 59.6 µM (inactive)
EC50 [2]: > 59.6 µM (inactive)

Compound: CC(C)Oc1cccc(C(=O)C2CCCN(Cc3cccn3-c3ccccn3)C2)c1 (stereo not drawn)
IC50 [3]: 3.3 µM (active)
IC50 [4]: 7.53 µM (active)

AC50 [5]: 1.34 µM (active)
IC50 [7]: 23.5 µM (active)
Compound: CC(=O)N(C(C)=O)N1C(=O)/C(=C/c2ccc(Cl)cc2)SC1=S
CC50 [6]: > 40 µM (active)

AC50 [8]: inconclusive
Compound: OCCN1CCOCCOCCN(CCO)CCN(CCO)CC1

IC50 [9]: > 100 µM (inactive)
Compound: Cc1ccsc1/C=N/c1ccc(C(N)=O)cc1

IC50 [9]: 30.1 µM (active)
Compound: COc1ccccc1CNC(=O)COC(=O)c1cc(-c2cccs2)nc2ccccc12

Compound: COc1cc(/C=N/N=C(N)N)ccc1OCc1ccc(Cl)cc1
IC50 [3]: 1.03 µM (active)
IC50 [4]: 0.916 µM (active)
EC50 [10]: 0.397 µM (active)
EC50 [11]: > 30 µM (not active)
IC50 [12]: > 20 µM (inactive)
IC50 [13]: 13.2 µM (active)
IC50 [14]: 12.9 µM (active)
AC50 [15]: 2.95 µM (active)
CC50 [16]: 5.63 µM (active)

Compound: COc1cc2c(c(OC)c1OC)-c1ccc(OC)c(=O)cc1[C@H](NC(C)=O)CC2
AC50 [17]: 39.8 µM (inconclusive)
AC50 [18]: inactive
AC50 [19]: inactive

Compound: Nc1c2c(nc3ccccc13)CCCC2O (stereo not drawn) [VELNACRINE MALEATE]
AC50 [20]: 35.5 µM (inconclusive)
